Experimental data: patent US20140335050A1, “METHODS, COMPOSITIONS, AND KITS FOR THE TREATMENT OF CANCER” (The General Hospital Corporation, priority 2011, published 2014)

Experiments:
Format in all cases: cell-based, human
MU89 melanoma cells = assay: Tumor cell/T cell co-culture IL-2 ELISA (Melan-A/MART-1 specific TCR Jurkat line J-TCR-M1 as responder); settings: for Fold increase (IL-2 relative to untreated controls), hits from pilot screen: about 10 μM, 72 hours treatment, then 24 hours co-culture; for Outcome in the primary co-culture IL-2 screen (hit or not): ICCB Known Bioactives Library, 10 μM
From the text: The assay relies on the use of an antigen-specific responder T cell line. […] The chosen TCR reacts specifically to a Melan-A/MART-1 decapeptide (26[…]35) presented by HLA-A2, with appropriate triggering of T cell activation. We then used a lentiviral vector system for transduction of this specific TCR into the J.RT3-T3.5 T cell line, a Jurkat cell derivative which fails to express endogenous surface TCR through a mutation in its beta chain.
We evaluated several candidate melanoma cell lines for the ability to stimulate the J-TCR-M1 cell line. Levels of Melan-A/MART-1 (determined by intracellular staining and flow cytometry) and corresponding levels of induced IL-2 (determined by coculture with J-TCR-M1 and IL-2 ELISA) were tested for different melanoma cell lines.
The 480 compounds were tested in six parallel 96 well plates. The first two columns (16 wells) of each plate were used for standards (8 wells), untreated controls (4 wells), and positive controls (4 wells). The other ten columns (80 wells) were used for testing compounds in separate wells. A100 μl aliquot containing 5×10^4 MU89 cells was added to wells that contained 0.1 μl of each test drug diluted in 50 μl of RPMI media. The plates were incubated with drug for 72 hours at 37° C. in a humidified incubator with 5% CO2. After 72 hours, each well received 2.5×10^4J-TCR-M1 cells in 50 μl medium, and then incubated a further 24 hours. At the conclusion of the 24 hour co-culture period, each plate was centrifuged to pellet the cells and 100 μl supernatant fluid was collected from each well and plated in a parallel 96 well flat bottom well for IL-2 ELISA assay.
Melanoma cells were treated with hits from the primary screen for three days prior to counting and plating for the coculture assay (cells were washed and resuspended in fresh medium that no longer contained the treatment agents during the co-culture). A100 μl volume of 5×10^5 cells/ml tumor cells were mixed with 50 μl of […] T cells in a 96-well V-bottom plate and incubated overnight (16-24 hours). Plates were centrifuged to pellet the cells and 100 μl of supernatant fluid was removed from each well for cytokine assay. To assess antigen-specific T cell responses, a final concentration of 3.33 μg/ml Melan-A/MART-1 peptide (26[…]35 (A27L from wild type)) was added to the co-culture.
The protocol for evaluation of the cytokine IL-2 was performed using a the BD OptEAI kit, human IL-2 ELISA set from BD Biosciences (San Diego, Calif.) following the manufacturer's recommendations. The absorbance 450 nm was read in a BioRad 3550 plate reader. A standard curve using known concentrations of IL-2 (from 500 to 8 pg/ml) was included in each ELISA plate. IL-2 levels for experimental samples (pg/ml) were calculated from the standard curve.
100 μl of 5×10^5 tumor cells/ml were mixed with 50 μl of T cells (at 5×10^5 cells/ml) in a 96-well V-bottom plate and incubated overnight (16-24 hours). Plates were centrifuged to pellet the cells and 120 μl of supernatant fluid was removed from each well for cytokine assay. To assess antigen-specific T cell responses, 3.33 μg/ml Melan-A/MART-1 peptide was added to the co-culture.
The protocols for evaluation of either IL-2 or IFN-gamma were similar, following the manufacturer's recommendations. A standard curve using known concentrations of each cytokine was included in each ELISA experiment. ELISA plates were coated with capture antibody and then washed with 1×PBS 0.5% Tween-20. Wells were blocked with 1×PBS 1% FBS for 1 hour and rewashed.

MU89 melanoma cell line = assay: Antibody staining and flow cytometry (intracellular Melan-A/MART-1, gp100, TRP-2; surface MHC Class I/II); settings: MU89 cells
Method: (§1) Cells were fixed with 1% formaldehyde, permeabilized with 0.1% saponin, stained with monoclonal antibodies to melanocyte antigens. Antibodies were obtained with specificity for: MART-1 from Vector Labs (Burlingame, Calif.); gp100 HMB45 from DakoCytomation (Carpinteria, Calif.) and then visualized with goat anti-mouse FITC-conjugated secondary antibody from Invitrogen (Fredrick, Md.). The level of EGFP was determined by flow cytometry of unfixed cells that were washed and resuspended in 1×PBS.
(§2) Cells were plated at a density of 1×10^5 in 1 ml of medium in a 24-well plate and cultured for varying times as indicated in results. […] After incubation, cells were collected by trypsinization and then evaluated by flow cytometry.
(§3) Intracellular staining and flow cytometric analyses of cytoplasmic Melan-A/MART-1, and gp100 expression were performed as described previously. Cells were fixed with 1% formaldehyde, permeabilized with 0.1% saponin, stained with monoclonal antibodies to melanocyte antigens. Antibodies were obtained with specificity for: Melan-A/MART-1 from Vector Labs (Burlingame, Calif.); gp100/HMB45 from DakoCytomation (Carpinteria, Calif.) and then visualized with goat anti-mouse FITC-conjugated secondary antibody from Invitrogen (Frederick, Md.). The level of EGFP was determined by flow cytometry of unfixed cells washed and resuspended in 1×PBS. Surface staining of MHC Class I was carried out using the antibody W6/32 on cells harvested with Cell Stripper from MediaTech Inc. (Manassas, Va.) and carried out on ice.
(§4) Cell were seeded at 1×10^6 cells in a T25 flask with 10 ml of media for the 4 day IFN-beta pre-treatments. Cells were then harvested and plated in 24 well plate at 1×10^5 cells per well in 1 ml of media for 3 day treatments.
(§5) For surface staining of HLA Class I and II antigens, cells were harvested using CellStripper™ from Mediatech (Manassas, Va.). All staining steps were performed on ice. Following a first incubation with antibody to Class I (W6/32) or Class II (L243) for 30 minutes. Stained cells were washed twice with cold PBS and then stained with a goat anti-mouse FITC secondary antibody to allow for quantitative analysis by flow cytometry. For evaluation of cytoplasmic antigens, including Melan-A/MART-1 and gp100, cells were first fixed in paraformaldehyde and permeabilized with saponin as previously described. Staining for cytoplasmic antigens was carried out at room temperature (22° C.).

[1] = test system: U-118 MG glioma cell line; assay: Antibody staining and flow cytometry (intracellular gp100; surface MHC Class I/II); settings: U118 cells; Table 20; single agent or simultaneous combination
Method: as §1, §2, §3, §4, §5

U2-OS osteosarcoma cells = assay: Surface antibody staining and flow cytometry (MHC Class I/II); settings: U2-OS cells; Table 20; single agent or simultaneous combination
Method: as §3, §4, §5

[2] = test system: HeLa cervical carcinoma cells; assay: as above; settings: HeLa cells
Method: as §3, §4, §5

[3] = test system: MCF-7 breast cancer cells; assay: as above; settings: MCF-7 cells; Table 20; single agent or simultaneous combination
Method: as §3, §4, §5

[4] = Table 20, single agent or simultaneous combination
[5] = Table 21, no pre-treatment, treatment as labelled
[6] = Table 21, pre-treatment PU-H71 (3 days), then treatment as labelled
[7] = Table 21, substance given as pre-treatment (3 days) only, no subsequent treatment

For `COc1c(C=O)c(O)cc2c1C(=O)c1ccccc1C2=O` [Damnacanthal], the “Fold increase (IL-2 relative to untreated controls), hits from pilot screen” value (MU89 melanoma cells) was 2.1 fold.
`O=C1CN(/N=C/c2ccc(-c3ccc([N+](=O)[O-])cc3)o2)C(O)=N1` [Dantrolene] was tested, and the “Fold increase (IL-2 relative to untreated controls), hits from pilot screen” value (MU89 melanoma cells) was 2.4 fold.
For `Fc1ccc(C(c2ccc(F)cc2)N2CCN(C/C=C/c3ccccc3)CC2)cc1` [Flunarizine], the “Fold increase (IL-2 relative to untreated controls), hits from pilot screen” value (MU89 melanoma cells) was 11.9 fold.
With `COc1ccc(Cl)cc1C(=O)NCCc1ccc(S(=O)(=O)NC(=O)NC2CCCCC2)cc1` [Glyburide] the “Fold increase (IL-2 relative to untreated controls), hits from pilot screen” value (MU89 melanoma cells) was 2.6 fold.
In the case of `CCCCCCCCCCCCCCCCCCc1ccc(C(=O)C=CC(=O)O)cc1` [OBAA, 3-(4-octadecyl)benzoylacrylic acid], the “Fold increase (IL-2 relative to untreated controls), hits from pilot screen” value (MU89 melanoma cells) is reported as 5.9 fold.
With `COc1cccc(-c2cc(=O)c3ccccc3o2)c1N` [PD98059] the “Outcome in the primary co-culture IL-2 screen (hit or not)” value (shortened to “Outcome … (hit or not)”) (MU89 melanoma cells) was “failed to be identified”.
In the case of `N#CC(=C(/N)Sc1ccccc1N)/C(C#N)=C(\N)Sc1ccccc1N` [U0126], the “Outcome … (hit or not)” value (MU89 melanoma cells) is reported as “failed to be identified”.
In the case of `CC[C@@]1(O)C(=O)OCc2c1cc1n(c2=O)Cc2cc3ccccc3nc2-1` [camptothecin], the “Outcome … (hit or not)” value (MU89 melanoma cells) is reported as “failed to be identified”.
For `COc1cccc2c1C(=O)c1c(O)c3c(c(O)c1C2=O)C[C@@](O)(C(C)=O)C[C@@H]3O[C@H]1C[C@H](N)[C@H](O)[C@H](C)O1` [daunorubicin], the “Outcome … (hit or not)” value (MU89 melanoma cells) was “interferes with the direct co-culture assay”.
For `COc1cccc2c1C(=O)c1c(O)c3c(c(O)c1C2=O)C[C@@](O)(C(=O)CO)C[C@@H]3O[C@H]1C[C@H](N)[C@H](O)[C@H](C)O1` [doxorubicin], the “Outcome … (hit or not)” value (MU89 melanoma cells) was “failed to be identified”.
With `COc1cc([C@@H]2c3cc4c(cc3[C@@H](O[C@@H]3O[C@@H]5CO[C@@H](C)O[C@H]5[C@H](O)[C@H]3O)[C@H]3COC(=O)[C@H]23)OCO4)cc(OC)c1O` [etoposide] the “Outcome … (hit or not)” value (MU89 melanoma cells) was “failed to be identified”.
IFN-G was tested, and the “L243 (MHC Class II surface staining)” value (MU89 melanoma cell line; [4]) was 64.3, the “W6/32 (MHC Class I surface staining)” value (MU89 melanoma cell line; [4]) was 86.7 and the “L243 (MHC Class II surface staining)” value (MU89 melanoma cell line; [5]) was 81. The “L243 (MHC Class II surface staining)” value (MU89 melanoma cell line; [6]) was 90, the “L243 (MHC Class II surface staining)” value (MU89 melanoma cell line; [7]) was 64 and the “L243 (MHC Class II surface staining)” value [1] was 53.6. The “W6/32 (MHC Class I surface staining)” value [1] was 232.8, the “L243 (MHC Class II surface staining)” value (U2-OS osteosarcoma cells) was 142.8 and the “W6/32 (MHC Class I surface staining)” value (U2-OS osteosarcoma cells) was 397.1. For the same compound, the “L243 (MHC Class II surface staining)” value [2, 4] was 86.0, the “W6/32 (MHC Class I surface staining)” value [2, 4] was 464.8 and the “L243 (MHC Class II surface staining)” value [2, 5] was 97. The “L243 (MHC Class II surface staining)” value [2, 6] was 33, the “L243 (MHC Class II surface staining)” value [2, 7] was 76 and the “L243 (MHC Class II surface staining)” value [3] was 59.1. The “W6/32 (MHC Class I surface staining)” value [3] was 478.5.
